# According to patent EP1154795B1, “MEANS FOR TREATING AND DIAGNOSING RESTLESS LEGS SYNDROME” (priority 1998, dated 2000):
# Test system: patients with light to moderate RLS/PMLS
# Assay: Double-blind, placebo controlled parallel group study with donepezil
# Format: in vivo
# Source text: Double-blind, placebo controlled parallel group study with donepezil. In a double-blind, placebo controlled parallel study with the CEI donepezil we studied 9 patients with light to moderate RLS/PMLS (PLM index, PLMI = 3-17).
# [1] = 5mg once daily, evening dose for 21 days
compound,measurement,setting,value
"COc1cc2c(cc1OC)C(=O)C(CC1CCN(Cc3ccccc3)CC1)C2 (stereo not drawn) [Donepezil, donepezil]",change in total sleep time after treatment,[1],no significant change
same,increase of the proportion of rapid eye movement sleep after treatment,[1],approximately 30%
same,side effects during the study period,[1],No side effects were reported
same,mean reduction of PLMI,"5mg once daily, evening dose for 21 days, from 8.3 to 5.3",approximately 36%
same,Marked reduction of PLMI (reduction in 5 patients),"5 of 9 patients, minor change in 3 patients, one patient increased PLMI, 5mg once daily for 21 days",57-100%
same,mean PLMI after treatment,"9 patients (PLMI = 3-17), 5mg once daily, evening dose for 21 days, mean PLMI reduced from 8.3",5.3
